According to ChEMBL document CHEMBL1201862, “PubChem BioAssay data set” (2004):
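These data come from cells grown in 96-well plates and exposed to compound for 48 hours at five concentrations. The concentration for 50% growth inhibition is given as GI50.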 Activity calls are given as the source filed them. Rule as the data show it: active = GI50 up to about 1.1 µM and inactive = higher.

Legend:
Experiment in all cases: growth of human tumour cells (NCI), 48 h
OVCAR-4 = tested on: OVCAR-4
XF498 = tested on: XF498
SF-268 = tested on: SF-268
M14 = tested on: M14
HT-29 = tested on: HT-29
OVCAR-3 = tested on: OVCAR-3
CAKI-1 = tested on: CAKI-1
SK-OV-3 = tested on: SK-OV-3
SK-MEL-2 = tested on: SK-MEL-2
SN12C = tested on: SN12C
SNB-75 = tested on: SNB-75
NCI-H460 = tested on: NCI-H460
HCT-116 = tested on: HCT-116
EKVX = tested on: EKVX
HOP-62 = tested on: HOP-62
UO-31 = tested on: UO-31
SNB-19 = tested on: SNB-19
SK-MEL-28 = tested on: SK-MEL-28
TK-10 = tested on: TK-10
DMS-273 = tested on: DMS-273
Malme-3M = tested on: Malme-3M
NCI-H23 = tested on: NCI-H23
A498 = tested on: A498
K562 = tested on: K562
KM-20L2 = tested on: KM-20L2
COLO 205 = tested on: COLO 205
DLD-1 = tested on: DLD-1
UACC-257 = tested on: UACC-257
IGROV-1 = tested on: IGROV-1
HCC 2998 = tested on: HCC 2998
OVCAR-8 = tested on: OVCAR-8
SW-620 = tested on: SW-620
LXFL 529 = tested on: LXFL 529
HL-60 = tested on: HL-60
DMS-114 = tested on: DMS-114
M19-MEL = tested on: M19-MEL
UACC-62 = tested on: UACC-62
RXF 631 = tested on: RXF 631
NCI-H522 = tested on: NCI-H522
ACHN = tested on: ACHN
A549 = tested on: A549
MOLT-4 = tested on: MOLT-4
RPMI-8226 = tested on: RPMI-8226
CCRF-CEM = tested on: CCRF-CEM
SK-MEL-5 = tested on: SK-MEL-5
KM12 = tested on: KM12
U-251 = tested on: U-251
SF-295 = tested on: SF-295
HOP-18 = tested on: HOP-18
HCT-15 = tested on: HCT-15
SF-539 = tested on: SF-539
786-0 = tested on: 786-0
RXF 393 = tested on: RXF 393
SNB-78 = tested on: SNB-78
LOX IMVI = tested on: LOX IMVI
NCI-H226 = tested on: NCI-H226
OVCAR-5 = tested on: OVCAR-5
HOP-92 = tested on: HOP-92

Measured: GI50

CN(C)CCC(CCN(C)C)=NOC(=O)c1ccccc1
> 100 µM: HCT-15
inactive: OVCAR-4 > 100 µM | XF498 > 100 µM | SF-268 > 100 µM | M14 > 100 µM | HT-29 > 100 µM | OVCAR-3 > 100 µM | CAKI-1 > 100 µM | SK-OV-3 > 100 µM | SK-MEL-2 > 100 µM | SN12C > 100 µM | SNB-75 > 100 µM | NCI-H460 > 100 µM | HCT-116 > 100 µM | EKVX > 100 µM | HOP-62 > 100 µM | UO-31 > 100 µM | SNB-19 > 100 µM | SK-MEL-28 > 100 µM | TK-10 > 100 µM | DMS-273 > 100 µM | Malme-3M > 100 µM | NCI-H23 > 100 µM | A498 > 100 µM | K562 > 100 µM | KM-20L2 > 100 µM | COLO 205 > 100 µM | DLD-1 > 100 µM | UACC-257 > 100 µM | IGROV-1 > 100 µM | HCC 2998 > 100 µM | OVCAR-8 > 100 µM | SW-620 > 100 µM | LXFL 529 > 100 µM | HL-60 > 100 µM | DMS-114 > 100 µM | M19-MEL > 100 µM | UACC-62 > 100 µM | RXF 631 > 100 µM | NCI-H522 > 100 µM | ACHN > 100 µM | A549 > 100 µM | MOLT-4 > 100 µM | RPMI-8226 > 100 µM | CCRF-CEM > 100 µM | SK-MEL-5 > 100 µM | KM12 > 100 µM | U-251 > 100 µM | SF-295 > 100 µM | HOP-18 > 100 µM | SF-539 > 100 µM | 786-0 > 100 µM | RXF 393 > 100 µM

COC(=O)c1ccc(C(=O)OC)c2nc3cc(C)ccc3nc12
inactive: OVCAR-4 > 100 µM | XF498 > 100 µM | SF-268 > 100 µM | M14 > 100 µM | HT-29 > 100 µM | OVCAR-3 > 100 µM | CAKI-1 > 100 µM | SK-OV-3 > 100 µM | SNB-78 > 100 µM | SK-MEL-2 > 100 µM | SN12C > 100 µM | SNB-75 > 100 µM | NCI-H460 > 100 µM | EKVX > 100 µM | HOP-62 > 100 µM | UO-31 > 100 µM | SNB-19 > 100 µM | SK-MEL-28 > 100 µM | TK-10 > 100 µM | DMS-273 > 100 µM | LOX IMVI > 100 µM | Malme-3M > 100 µM | NCI-H23 > 100 µM | A498 > 100 µM | K562 > 100 µM | NCI-H226 51.1 µM | KM-20L2 > 100 µM | COLO 205 > 100 µM | DLD-1 > 100 µM | UACC-257 > 100 µM | IGROV-1 > 100 µM | HCC 2998 > 100 µM | OVCAR-8 > 100 µM | SW-620 > 100 µM | LXFL 529 > 100 µM | HL-60 > 100 µM | DMS-114 > 100 µM | OVCAR-5 > 100 µM | UACC-62 > 100 µM | RXF 631 > 100 µM | ACHN > 100 µM | A549 > 100 µM | MOLT-4 > 100 µM | RPMI-8226 > 100 µM | CCRF-CEM > 100 µM | SK-MEL-5 > 100 µM | KM12 > 100 µM | U-251 > 100 µM | HOP-92 > 100 µM | SF-295 > 100 µM | HOP-18 > 100 µM | SF-539 > 100 µM | 786-0 > 100 µM
> 100 µM: HCT-15

CN(C)C(c1ccccc1)C(O)c1ccccc1 (centres undefined)
inactive: XF498 > 100 µM | SF-268 > 100 µM | M14 > 100 µM | HT-29 > 100 µM | OVCAR-3 > 100 µM | CAKI-1 > 100 µM | SK-OV-3 > 100 µM | SNB-78 > 100 µM | SK-MEL-2 > 100 µM | SN12C > 100 µM | SNB-75 75.5 µM | NCI-H460 > 100 µM | EKVX > 100 µM | HOP-62 > 100 µM | UO-31 > 100 µM | SNB-19 > 100 µM | SK-MEL-28 > 100 µM | TK-10 > 100 µM | DMS-273 > 100 µM | LOX IMVI > 100 µM | Malme-3M > 100 µM | NCI-H23 > 100 µM | A498 > 100 µM | K562 > 100 µM | NCI-H226 > 100 µM | KM-20L2 > 100 µM | COLO 205 > 100 µM | DLD-1 > 100 µM | UACC-257 > 100 µM | IGROV-1 > 100 µM | HCC 2998 > 100 µM | SW-620 > 100 µM | LXFL 529 > 100 µM | HL-60 > 100 µM | DMS-114 > 100 µM | M19-MEL > 100 µM | UACC-62 > 100 µM | RXF 631 > 100 µM | NCI-H522 > 100 µM | ACHN > 100 µM | A549 > 100 µM | MOLT-4 > 100 µM | RPMI-8226 > 100 µM | CCRF-CEM > 100 µM | KM12 > 100 µM | U-251 > 100 µM | SF-295 > 100 µM | HOP-18 > 100 µM | SF-539 > 100 µM | 786-0 > 100 µM | RXF 393 > 100 µM
> 100 µM: HCT-15
